Measured values taken from patent EP0457326A1, “Antiviral agents” (SYNTEX (U.S.A.) INC., priority 1990, dated 1991).
Like-named read-outs stand apart in the source and are kept apart here.

Key:
[1] = preliminary results of Biochemical Pharmacology 38, 869-74 (1989); cited from earlier work
HIV (LAV Strain) = assay: Antiviral activity in HIV-infected A301 (Alex) cells, read out by reverse transcriptase level; format: cell-based; conditions: Human immunodeficiency virus 1, 168 h
Procedure: This procedure is a modification of a procedure initially described by Chen et al., Biochemical Pharmacology, 36 (24), 4361-4362 (1987).
(§1) A301 (Alex) cells are pre-infected with a constant amount of HIV (LAV Strain) for three hours at 37°C. Test compounds and AZT (control) are added to the infected cells in two, three or five-fold dilutions, diluted out four places for screening and eight places for confirmation in 96 well plates. Unless mentioned the highest concentration is […]. The test plates are incubated in CO₂ at 37°C for seven days (incubation time depends on virus pool titer) with a partial medium/sample change on day four of the incubation period. Uninfected A301 cells with sample dilutions, but without virus, are used to evaluate cytotoxicity.
Reverse transcriptase levels are assayed at the end of the incubation period as follows, to determine if antiviral activity is present.
[…] of medium from the HIV infected Alex cells is added to […] of 3.2% Triton X-100. This solution is incubeted for 30 minutes at 37°C, then […] of 4X assay mix is added to it. The 4X assay mix contains [³H]TTP, poly(A).oligo(dT), potassium chloride, magnesium chloride, dithiothreitol, and Tris-HCl buffer, pH8.0. […] The radioactivity remaining on the 3MM paper is quantitated by scintillation counter, and corresponds to reverse transcriptase level.

[2] = Cytotoxicity in uninfected A301 cells; format: cell-based; conditions: human; uninfected A301 cells with sample dilutions, without virus; read-out: Cell Toxicity Partial
Procedure: as §1, with “Test compounds and AZT (control) are added to the infected cells in two, three or five-fold dilutions, diluted out four places for screening and eight places for confirmation in 96 well plates.” left out

Uninfected A301 cells = assay: Cytotoxicity in uninfected A301 cells; format: cell-based; conditions: uninfected A301 cells with sample dilutions, without virus
Procedure: as §1, with “Test compounds and AZT (control) are added to the infected cells in two, three or five-fold dilutions, diluted out four places for screening and eight places for confirmation in 96 well plates.” left out

HIV = conditions: prior art statement; cited from earlier work
[3] = prior art statement; cited from earlier work

Row | Structure (SMILES) | antiviral activity [1] | MCC at 168 h [2] | Cell Toxicity Complete (Uninfected A301 cells) | other results
1 | O=c1[nH]c(=O)n([C@H]2C[C@H](F)[C@@H](CO)O2)cc1Cl [5-chloro-substituted-3'-fluoro-2',3'-dideoxyuridine] | potent antiviral activity |  |  | 
2 | [N-]=[N+]=N[C@]1(CO)O[C@@H](n2cc(Cl)c(=O)[nH]c2=O)C[C@@H]1O [A, 1-(4-azido-2-deoxy-β-D-erythro-pentofuranosyl)-5-chloro-2,4-dioxopyrimidine] |  | 1 mM | >1000 µM | EC50 (HIV (LAV Strain); A301 (Alex) cells pre-infected with HIV (LAV Strain), seven days incubation, reverse transcriptase level, read-out: EC50): 56 nM
3 | [N-]=[N+]=N[C@]1(CO)O[C@@H](n2ccc(N)nc2=O)[C@H](O)[C@@H]1O [4'-azidocytidine] |  |  |  | anti-HIV activity (HIV): devoid of anti-HIV activity; cytotoxicity [3]: cytotoxic
4 | Cc1cn([C@H]2C[C@H](N=[N+]=[N-])[C@@H](CO)O2)c(=O)[nH]c1=O [control, 3'-azidothymidine] |  | > 0.04 mM | >40 µM | EC50 (HIV (LAV Strain)): 5 nM
5 | [N-]=[N+]=N[C@H]1C[C@H](n2cc(Cl)c(=O)[nH]c2=O)O[C@@H]1CO [5-chloro-substituted-3'-azido-2',3'-dideoxyuridine] | potent antiviral activity |  |  | 
